Test results published in patent publication EP3412361A1, “METHOD FOR PREPARING PARTICULATE FORM CAESIUM-REMOVAL INORGANIC ION ADSORBENT AND PRODUCT AND APPLICATION THEREOF” (Tsinghua University, priority 2015, dated 2017).

assay: Monolayer dispersion threshold of metal salt on silica gel by XRD diffraction peak intensity extrapolation; assay type: physicochemical; settings: salt impregnated on silica gel at 90 °C, dried 120 °C 10 h
Description: Through equal volume impregnation method, silica gel pellets is impregnated with a series of different concentrations of salt solution containing M^n+ ion. The impregnated solid materials are dried in an oven to obtain a silica gel intermediate M/SiO2 with a different amounts of M salt on the surface. Based on monolayer dispersion principle of a metal salt on the surface of carrier, the monolayer dispersion threshold of various kinds of M^n+ ion salts on silica gel surface is determined by X - ray diffraction method. The value is the monolayer loading of various salts on the surface of silica gel carrier.
Further, in the step (1), it is necessary to determine monolayer dispersion threshold of M^n+ ion salt on the surface of silica gel, which may be measured by loading a series of different amounts of the M^n+ ion salt onto the surface of silica gel by the solution impregnation method followed by drying to obtain the sample to be tested.
The silica gel mass is 5-10 g, and the loading amount of M^n+ ion salt on the silica gel is 0.02g, 0.05g, 0.1g, 0.5g, 1.0g, 2.0g, 3.0g, 4.0g, 5.0g, 6.0 g per g silica gel; the ratio by volume of the M^n+ ion solution to the silica gel is 0.5-2.
The obtained samples series is subjected to X-ray diffraction (XRD) and the strongest diffraction peak intensity (y-axis) is linearly correlated with the corresponding M^n+ ion salt loading (x-axis) in which the intercept on the x-axis is the monolayer dispersion threshold.
Further, in the step (1), the impregnation process is carried out in a water bath at a temperature of 90 °C, and the mixture is continuously stirred until the liquid is completely evaporated and the solute M^n+ ion salt is fully supported on the silica gel surface.
Further, in the step (1), the silica gel intermediate M/ SiO2 is dried in an oven for 10 h at a temperature of 120 °C.
Then, 1 g of silica gel pellets were added to each beaker and the beaker was placed in a water bath at a temperature of 90 °C. In the process of evaporation of water, the mixture was being stirred with a glass rod until the water evaporated and the pellets were basically dry. The beaker was dried in an oven at 120 °C for 10 hours.
Then, 1 g of silica gel pellets were added to each beaker and the beaker was placed in a water bath at a temperature of 90 °C.

Compared with O=S(=O)([O-])[O-].[Cu+2] [CuSO4, copper sulfate], CC(=O)[O-].CC(=O)[O-].O.O.[Zn+2] [Zn(AC)2, zinc acetate] is lower in “monolayer dispersion threshold on silica gel” value (from here on “monolayer dispersion threshold”): 0.79 g/g for the first, 0.18 g/g for the second.

Going from [Cl][Fe]([Cl])[Cl] [FeCl3, ferric chloride] to O.O=[N+]([O-])[O-].O=[N+]([O-])[O-].[O]=[Zr+2] [ZrO(NO3)2], the “monolayer dispersion threshold” value rises from 0.43 g/g to 1.02 g/g.

With O.O.O.O.O.O.O=[N+]([O-])[O-].O=[N+]([O-])[O-].[Co+2] [Co(NO3)2, cobalt nitrate] the “monolayer dispersion threshold” value was 0.63 g/g.
